Experiments:
Assay in all cases: Cell line proliferation study
Assay type in all cases: cell-based, human
SW900 = details: SW900, lung; for IC50: Homo sapiens, 72 hours, read-out: gIC50
Method: (§1) In a separate study, combination drug tests with Compounds A and B were conducted using a panel of cell lines from human colon cancers (n=26), lung cancers (n=15) and pancreatic cancers (n=6). Cell lines were obtained from commercial vendors (ATCC and DSMZ). Cell lines were grown in RPMI-1640 supplemented with 2 mM glutamine, 1 mM sodium pyruvate and 10% fetal bovine serum (except for Capan-1 and HuP-T4 which were grown with 20% fetal bovine serum) and maintained at 37° C. and 5% CO2 in a humid incubator. Assays were performed in 384 well microtiter plates with optimum seeding densities for each cell line.
(§2) The test compounds were prepared as 10 mM stocks in 100% DMSO. Further dilutions of the compounds were made in DMSO. Compound A was diluted horizontally in a separate 96 well microtiter plate in rows D-G using a 3-fold dilution series for 10 dilution points. Compound B was similarly diluted horizontally in a 96 well microtiter plate in rows B-E using a 3-fold dilution series for 10 dilution points.
(§3) The two compounds were combined using equal volumes from each drug plate into cell culture media. […] Both Compound A and Compound B were individually titrated in rows B and C (for Compound B) and rows F and G (for Compound A) of the merged drug plate.
(§4) A 1:10 dilution of the drugs was performed in cell culture media prior to addition to the cells.
(§5) The final concentration range for the test compounds was 250 to 0.013 nM for Compound A and 1000 to […] for Compound B. The positive control consisted of culture media with DMSO at 0.1% and cells. The negative control consisted of culture media with DMSO at 0.1%. The cell lines were incubated at 37° C., 5% CO2 in humid air for 72 hours. Cell proliferation was measured using the CellTiter Glo (Promega) reagent according to the manufacturer's protocol. The plates are treated with CellTiter Glo solution and are analyzed for RLU (relative light units) using a Molecular Devices SpectraMax M5 plate reader.
(§6) The percent intensity values were used in model 205 of XLfit (IDBS, Inc.) in Microsoft Excel to calculate gIC50 values using a 4 parameter logistical fit. The midpoint of the growth window (the gIC50) falls half way between the number of cells at the time of compound addition (T=0) and the growth of control cells treated with DMSO at 72 hrs. The number of cells at time zero (T0) is divided from the intensity value at the bottom of the response curve (Ymin) to generate a measure for cell death (Ymin/T0). A value below 1 for Ymin/T0 indicates stronger potency to induce cell death with the treatment when compared to higher values.
(§7) 1. Excess over Highest Single Agent (EOHSA)—This was calculated as described above (Borisy et al, 2003; FDA 21 CFR 300.50) 2. Bliss synergy—A second criterion often used to determine combination synergy is evaluating the excess inhibition over Bliss independence or “additivity” (Bliss and Mexico, 1939). The model assumes a combined response of the two compounds independently using the following:
(§8) Where Ea is the effect (or percent inhibition) of Compound A and Eb is the effect of Compound B. The resulting effect of the combination of the two compounds is compared to their predicted additivity by Bliss and a synergy score is generated for each dose along the response curve. 3. Combination Index (CI)—A third criterion traditionally used for the evaluation of synergy is Combination Index (CI) derived from the Chou and Talalay (1984). The following equation is a model used for compounds that behave with different mechanisms of action (mutually non-exclusive formula). This was calculated as described above.
(§9) For EOHSA and Bliss Synergy measures, a score is generated for each dose along the response curve. These scores reflect the percentage over the highest agent (EOHSA) or percentage greater than Bliss additivity, depending on which metric is being interpreted. […]

YAPC = details: pancreas; for IC50: Homo sapiens, 72 hours, read-out: gIC50
Method: as §1, §2, §3, §4, §5, §6, §7, §8, §9

SW620 = details: SW620, colon; for IC50: Homo sapiens, SW-620, 72 hours, read-out: gIC50
Method: as §1, §2, §3, §4, §5, §6, §7, §8, §9

HPAFII = details: pancreas; for IC50: Homo sapiens, HPAF-II, 72 hours, read-out: gIC50
Method: as §1, §2, §3, §4, §5, §6, §7, §8, §9

NCIH1563 = details: NCIH1563, lung; for IC50: Homo sapiens, NCI-H1563, 72 hours, read-out: gIC50
Method: as §1, §2, §3, §4, §5, §6, §7, §8, §9

SW48 = details: SW48, colon; for IC50: Homo sapiens, 72 hours, read-out: gIC50
Method: as §1, §2, §3, §4, §5, §6, §7, §8, §9

WiDr = details: colon; for IC50: Homo sapiens, 72 hours, read-out: gIC50
Method: as §1, §2, §3, §4, §5, §6, §7, §8, §9

SW837 = details: SW837, colon; for IC50: Homo sapiens, 72 hours, read-out: gIC50
Method: as §1, §2, §3, §4, §5, §6, §7, §8, §9

T84 = details: T84, colon; for IC50: Homo sapiens, 72 hours, read-out: gIC50
Method: as §1, §2, §3, §4, §5, §6, §7, §8, §9

HCT8 = details: HCT8, colon; for IC50: Homo sapiens, HCT-8, 72 hours, read-out: gIC50
Method: as §1, §2, §3, §4, §5, §6, §7, §8, §9

MiaPaCa = details: for IC50: Homo sapiens, MIA PaCa-2, pancreas, 72 hours, read-out: gIC50; for Ymin/T0: pancreas
Method: as §1, §2, §3, §4, §5, §6, §7, §8, §9

HT29 = details: HT29, colon; for IC50: Homo sapiens, HT-29, 72 hours, read-out: gIC50
Method: as §1, §2, §3, §4, §5, §6, §7, §8, §9

SW948 = details: SW948, colon; for IC50: Homo sapiens, 72 hours, read-out: gIC50
Method: as §1, §2, §3, §4, §5, §6, §7, §8, §9

NCIH2030 = details: NCIH2030, lung; for IC50: Homo sapiens, NCI-H2030, 72 hours, read-out: gIC50
Method: as §1, §2, §3, §4, §5, §6, §7, §8, §9

LS174T = details: colon; for IC50: Homo sapiens, 72 hours, read-out: gIC50
Method: as §1, §2, §3, §4, §5, §6, §7, §8, §9

SW403 = details: SW403, colon; for IC50: Homo sapiens, SW-403, 72 hours, read-out: gIC50
Method: as §1, §2, §3, §4, §5, §6, §7, §8, §9

| Compound | IC50 (SW900) [nM] | Ymin/T0 (SW900) | IC50 (YAPC) [nM] | Ymin/T0 (YAPC) | IC50 (SW620) [nM] | Ymin/T0 (SW620) | IC50 (HPAFII) [nM] | Ymin/T0 (HPAFII) | IC50 (NCIH1563) [nM] | Ymin/T0 (NCIH1563) | IC50 (SW48) [nM] | Ymin/T0 (SW48) | IC50 (WiDr) [nM] | Ymin/T0 (WiDr) | IC50 (SW837) [nM] | Ymin/T0 (SW837) | IC50 (T84) [nM] | Ymin/T0 (T84) | Ymin/T0 (HCT8) | IC50 (HCT8) [nM] | other results |
| --- | --- | --- | --- | --- | --- | --- | --- | --- | --- | --- | --- | --- | --- | --- | --- | --- | --- | --- | --- | --- | --- |
| CC(=O)Nc1cccc(-n2c(=O)n(C3CC3)c(=O)c3c(Nc4ccc(I)cc4F)n(C)c(=O)c(C)c32)c1 [Compound A, N-{3-[3-cyclopropyl-5-(2-fluoro-4-iodo-phenylamino)-6,8-dimethyl-2,4,7-trioxo-3,4,6,7-tetrahydro-2H-pyrido[4,3-d]pyrimidin-1-yl]phenyl}acetamide] | 15 | −5.9 | > 250 | 59.4 | 15.2 | 15.46 | 15.9 | −0.8 | > 250 | 26.6 | 8.16 | 13.02 | 1.85 | 3.94 | 153 | 25.58 | 139 | 12.44 | 16.70 | 18.3 | IC50 (MiaPaCa): 23.5 nM; Ymin/T0 (MiaPaCa): 25.0; Ymin/T0 (HT29): 11.99; IC50 (HT29): 3.6 nM; IC50 (SW948): 185 nM; Ymin/T0 (SW948): 27.87; IC50 (NCIH2030): > 250 nM; Ymin/T0 (NCIH2030): 55.8; IC50 (LS174T): 81.4 nM; Ymin/T0 (LS174T): 18.26; IC50 (SW403): 4.6 nM; Ymin/T0 (SW403): 3.02 |
| Cn1ncc(Cl)c1-c1cc(C(=O)N[C@H](CN)Cc2ccc(F)c(F)c2)oc1Cl [Compound B, N-{(1S)-2-amino-1-[(3,4-difluorophenyl)methyl]ethyl}-5-chloro-4-(4-chloro-1-methyl-1H-pyrazol-5-yl)-2-furancarboxamide] | > 1000 | 47.3 | > 1000 | 55.2 | > 1000 | 76.65 | > 1000 | 31.2 | 65 | 27.6 | 428 | 11.68 | 700 | 5.24 | > 1000 | 63.88 | 427 | −5.58 | 20.44 | 758 | IC50 (MiaPaCa): > 1000 nM; Ymin/T0 (MiaPaCa): 0.7; Ymin/T0 (HT29): 11.64; IC50 (HT29): 780 nM; IC50 (SW948): 609 nM; Ymin/T0 (SW948): 20.46; IC50 (NCIH2030): > 1000 nM; Ymin/T0 (NCIH2030): 40.7; IC50 (LS174T): > 1000 nM; Ymin/T0 (LS174T): 19.70; IC50 (SW403): 74.3 nM; Ymin/T0 (SW403): 8.82 |

Source: patent US20150094321A1, “COMBINATION” (GlaxoSmithKline LLC, priority 2009, published 2015)
